Where “and” joins values, the source holds several entries; their conditions need not be identical. Equal values may be shown once.
Tests used:
CmoB R315A mutant = target: T1, CmoB R315A mutant (Escherichia coli, UniProt P76291, R315A); assay: Isothermal titration calorimetry, R315A mutant CmoB; assay type: binding
T1 construct: vector LIC-pET30a) (cleaved yes); made in house; host or cells: Escherichia coli BL21 (DE3)
Description: (§1) CmoB was extensively dialyzed for 24 h against binding buffer (20-mM HEPES, pH 7.5) using a dialysis cassette with 10-kDa MWCO (Pierce). Lyophilized Cx-SAM was dissolved in the binding buffer at a final concentration of 1.3 mM. SAM was purchased from Sigma and dissolved in binding buffer at a final concentration of 10 mM. Prior to use, all titration samples were centrifuged for 20 min at 4°C. Isothermal titration calorimetry (ITC) experiments were performed at 15°C using an auto-ITC200 (MicroCal, LLC, Northhampton, MA, USA) in which the reaction cell (202.8 μl) containing CmoB (50 μM and 370 μM for Cx-SAM and SAM, respectively) was titrated with 40 × 1-μl injections of 1.3-mM Cx-SAM or 6.7-mM SAM with an equilibration time of 180 s. Raw injection traces were integrated over time, normalized per mol of ligand injected and corrected for the heat of dilution obtained from the plateau of a titration curve. Titration data were analyzed using a single-site model in Origin (version X) and Igor Pro 5/6. […] Based on the chemical synthesis, the Cx-SAM utilized in the binding assay is a racemic mixture, of which only the S-isomer is capable of acting as a substrate/ligand for CmoB. Therefore, the stoichiometry was fixed at 1:1 and the activity of the ligand was introduced as a fitting parameter for Cx-SAM.

wild-type CmoB [1] = target: T2, wild-type CmoB (Escherichia coli, UniProt P76291); assay: In vitro LC-MS-based alkyl transfer assay, wild-type CmoB; assay type: biochemical
T2 construct: vector LIC-pET30a) (cleaved yes); made in house; host or cells: Escherichia coli BL21 (DE3)
Description: The assay solution for SAM-dependent mo5U formation contained 10-mM Tris-HCl (pH 8.0), 4-mM MgCl2, 0.2-mM SAM and 20–25 μg (∼20 μM) of total tRNA prepared from cmoB-mutant E. coli cells in 50 μl. Reaction conditions for Cx-SAM-dependent cmo5U formation assay were identical, with the exception that10-μM Cx-SAM was used in place of SAM. Assays were initiated by addition of 0.1–2-μM CmoB to the above mixtures and subsequently incubated at the room temperature. The reaction was terminated by the addition of 0.1-mg/ml P1 nuclease, followed by incubation at 60°C for at least 1 h. […] Hydrolyzed nucleotides were directly applied to HPLC without further processing for LC-MS analysis as described above.

CmoB Y200A mutant = target: T3, CmoB Y200A mutant (Escherichia coli, UniProt P76291, Y200A); assay: Isothermal titration calorimetry, Y200A mutant CmoB; assay type: binding
T3 construct: vector LIC-pET30a) (cleaved yes); made in house; host or cells: Escherichia coli BL21 (DE3)
T3 sequence (P76291 whole entry Y200A): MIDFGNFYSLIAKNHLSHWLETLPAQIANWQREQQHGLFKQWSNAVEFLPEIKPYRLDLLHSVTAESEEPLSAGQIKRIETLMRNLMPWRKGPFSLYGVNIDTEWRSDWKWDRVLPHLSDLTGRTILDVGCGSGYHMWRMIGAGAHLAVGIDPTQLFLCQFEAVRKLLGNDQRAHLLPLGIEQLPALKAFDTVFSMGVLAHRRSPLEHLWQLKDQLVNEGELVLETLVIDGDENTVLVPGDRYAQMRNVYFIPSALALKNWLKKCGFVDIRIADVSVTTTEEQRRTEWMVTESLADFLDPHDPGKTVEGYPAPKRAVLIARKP
Description: as §1

CmoB K91A mutant = target: T4, CmoB K91A mutant (Escherichia coli, UniProt P76291, K91A); assay: Isothermal titration calorimetry, K91A mutant CmoB; assay type: binding; details: K91A
T4 construct: vector LIC-pET30a) (cleaved yes); made in house; host or cells: Escherichia coli BL21 (DE3)
T4 sequence (P76291 whole entry K91A): as the sequence (P76291 whole entry Y200A) above, with K91A, A200Y counted along it
Description: as §1
The titration curve was analyzed using macroscopic binding constants and enthalpies describing binding of n-molecules of Cx-SAM to tetrameric mutant CmoB. Initially, the titration curve was analyzed with all possible values of n (=1~4). […] Therefore, the titration curve was analyzed using three sets of binding constants and enthalpies (Supplementary Table 2). The fitted values of the macroscopic binding constants were compared to those expected for a case of non-cooperative binding. For both cooperative and non-cooperative binding, K1 is given by 4Ksite where 4 accounts for the number of ligand binding sites in teterameric CmoB (i.e., statistical factor) and Ksite describes the “intrinsic” affinity of each site. Then, Ksite=3.6x10^4 M^-1. The fitted value of K2 is ~ 8.4-fold higher than that calculated for the case of non-cooperative binding (6Ksite^2=7.7x10^9 M^-2), indicating positive cooperativity involved in binding of the second Cx-SAM. Since the population of K91A with three Cx-SAMs bound is negligible, binding of the third Cx-SAM is deduced to be negatively cooperative.
A possible molecular explanation for such heterogeneous cooperativity involved in the interaction between K91A and Cx-SAM is the presence of (at least) two different types of interface between the subunits in tetrameric K91A which is consistent with the structural model of the CmoB tetramer. In this model (Supplementary Figure 9), the four ligand binding sites are initially equivalent, but binding of the first ligand to any of these four sites differentially affects (increases and decreases) the affinities of the neighboring sites for the second ligand through the different subunit interfaces. This model is a variation of the classical “square” model used in the analysis of the interaction between hemoglobin and oxygen(2) and provides a molecular description of the fitted macroscopic binding constants in terms of the intrinsic affinity (Ksite) and two types of cooperativity (ω+ and ω-): K1=4Ksite; K2=2Ksite^2(1+ω++ω-); K4=Ksite^4(ω+ω-)^2. Then, Ksite=3.6x10^4 M^-1, ω+=23.8, and ω-=0.4. The value of ω is equivalent to a fold-change in the Cx-SAM affinity of a binding site in tetrameric K91A when its neighboring site is already occupied by Cx-SAM.
^aIn this model, the interaction is described by a set of binding events where n-molecules of Cx-SAM bind tetrameric CmoB (K91A) with the corresponding binding constants (Kn) and enthalpies (∆Hn°). Initially, the titration curve was analyzed by this model including all possible values of n (=1~4). […] Therefore, the titration curve was analyzed using three sets of binding constants and enthalpies.

wild-type CmoB [2] = target: T2, wild-type CmoB; assay: Isothermal titration calorimetry, wild-type CmoB; assay type: binding
Description: as §1

[3] = target: the molecule itself; assay: AUC; sedimentation velocity, g(s*) distribution fitted to a single-species model; with or without Cx-SAM or SAM

T1 sequence (P76291 whole entry R315A): as the sequence (P76291 whole entry Y200A) above, with A200Y, R315A counted along it

C[S+](CC[C@H](N)C(=O)[O-])C[C@H]1O[C@@H](n2cnc3c(N)ncnc32)[C@H](O)[C@@H]1O (some centres unmarked) [SAM, reference compound]
Kd (CmoB R315A mutant): 140 ± 7.3 µM
K (binding constant) (CmoB R315A mutant; ITC, 15°C, single-site model, R315A): 7.1 ± 0.4 x 10^3 M^−1
ΔH° (CmoB R315A mutant; ITC, R315A): -11.1 ± 0.2 kcal/mol
ΔG° (CmoB R315A mutant; ΔG° = −RT lnK, R315A): -5.1 ± 0.1 kcal/mol
ΔS° (CmoB R315A mutant; ΔS° = (ΔH°−ΔG°)/T, R315A): −21.0 ± 0.8 cal/mol/deg
Time to observed mo5U formation (wild-type CmoB [1]; 2-μM wild-type CmoB, 0.2-mM SAM as alkyl donor): 5 h
Time to detected trace mo5U with both donors present (wild-type CmoB [1]; 10-μM Cx-SAM and 2-mM SAM): 2 h
Kd (CmoB Y200A mutant): > 119 µM
K (binding constant) (CmoB Y200A mutant; ITC, 15°C, single-site model, Y200A): N.D.^e (< 8.4 × 10^3) M^−1
ΔG° (CmoB Y200A mutant; ΔG° = −RT lnK, Y200A): >-5.1 kcal/mol
K (binding constant) (CmoB K91A mutant; ITC, 15°C, single-site model): 9.1 ± 0.2 × 10^4 M^−1 and 9.1 ± 0.2 x 10^4 M^−1
ΔH° (CmoB K91A mutant; ITC): -6.4 ± 0.1 kcal/mol
Kd (CmoB K91A mutant; Kd, ITC, 15°C): 11 ± 0.2 µM
ΔG° (CmoB K91A mutant; ΔG° = −RT lnK): -6.5 ± 0.1 kcal/mol
ΔS° (CmoB K91A mutant; ΔS° = (ΔH°−ΔG°)/T): 0.4 ± 0.1 cal/mol/deg
ΔH° (wild-type CmoB [2]; ITC): -0.6 ± 0.1 kcal/mol
K (binding constant) (wild-type CmoB [2]; ITC, 15°C, single-site model): 4.8 ± 2.0 × 10^3 M^−1 and 4.8 ± 2.0 x 10^3 M^−1
TΔS° (wild-type CmoB [2]; ITC, text): 4.23 ± 0.27 kcal/mol
ΔG° (wild-type CmoB [2]; ITC, text): -4.85 ± 0.24 kcal/mol
ΔH° (wild-type CmoB [2]; ITC, text): -0.62 ± 0.12 kcal/mol
ΔS° (wild-type CmoB [2]; ITC, text): 14.7 ± 0.9 cal·mol^−1·deg^−1
Kd (wild-type CmoB [2]; ITC): 210 ± 90 µM
Kd (wild-type CmoB [2]; ITC, 15°C): 200 µM and 208 µM
ΔG° (wild-type CmoB [2]; ΔG° = −RT lnK): -4.9 ± 0.2 kcal/mol
ΔS° (wild-type CmoB [2]; ΔS° = (ΔH°−ΔG°)/T): 14.7 ± 0.9 cal/mol/deg

B1: CmoB carboxymethyl transferase (enzyme, Escherichia coli (BL21 genomic DNA))
chain: MIDFGNFYSLIAKNHLSHWLETLPAQIANWQREQQHGLFKQWSNAVEFLPEIKPYRLDLLHSVTAESEEPLSAGQIKRIETLMRNLMPWRKGPFSLYGVNIDTEWRSDWKWDRVLPHLSDLTGRTILDVGCGSGYHMWRMIGAGAHLAVGIDPTQLFLCQFEAVRKLLGNDQRAHLLPLGIEQLPALKAFDTVFSMGVLYHRRSPLEHLWQLKDQLVNEGELVLETLVIDGDENTVLVPGDRYAQMRNVYFIPSALALKNWLKKCGFVDIRIADVSVTTTEEQRRTEWMVTESLADFLDPHDPGKTVEGYPAPKRAVLIARKP
notes: CmoB of Escherichia coli, cmoB gene amplified from genomic DNA of E. coli BL21 and cloned into LIC-pET30a; calculated monomer mass 37.01 kD; 319-323 C-alphas aligned per protomer in the structures; A selenomethionine-substituted form (made in E. coli B834, purified the same way) gave the experimental phases; also called wild-type CmoB; source: E. coli BL21 (DE3), purified (Ni-agarose, thrombin …)
stoichiometry N [3]: 4
